Measured values reported in patent publication US6440432B1, “Skin cosmetic compositions containing dextran or maltodextrin and a weak carboxylic acid” (Unilever Home & Personal Care USA, a division of Conopco, …, priority 1999, dated 2002).
Entries after “also recorded” stand apart in the source; their conditions may differ.

Tests used:
[1] = cited from earlier work
[2] = test system: contralateral nasolabial folds of subjects sensitive to glycolic acid; assay: in-vivo sting test (sting/burn propensity and forced choice); conditions: for Effect on stinging/burning propensity of Base Formula A containing 8% glycolic acid (in words): substance added to the formulation, pH 3.8; for Effect on sting/irritation caused by weak carboxylic acids (in words, summary): summary of Examples 1-6
From the text: (§1) Procedure for in-vivo sting test: This was a randomized, double blind study where each subject evaluated one test formulation and a control formulation or two test formulations on contralateral nasolabial folds. […] A maximum of 20 qualified subjects (minimum of 15) were utilized in each subsequent test. One paired comparison was made on each testing day, with a minimum of 3 days between sting testing throughout the study. Subjects underwent a 15 second Ivory soap wash regime immediately prior to product testing for enhancing sting response. […] Study personnel then applied one test formulation and one control or test formulation simultaneously to the appropriate left/right test site, and gently but thoroughly rubbed in. Subjects compared the stinging potential of the two formulations, over a 7.5 minute period using a self-assessment questionnaire.
(§2) Sting/Burn Propensity: The degree of stinging/burning felt on the left and right inner cheek and crease of the nose was evaluated using the following scale at the times indicated in Tables below:
(§3) 0-no stinging/burning; 1-very slight stinging/burning; 2-slight stinging/burning; 3-moderate stinging/burning; 4-moderately high stinging/burning; 5-high stinging/burning; 6-extreme stinging/burning.
(§4) Determination of Statistical Significance: At each evaluation time point after baseline, the parametric paired t-test (two-tailed) was performed, to compare the extent of attribute change from baseline between each treatment comprising a paired comparison test, with subject acting as a block in these analyses. […] The test can be implemented using the SAS software procedure MEANS with the T and PRT options specified.
(§5) Statistical significance was determined at p≦0.1.

[3] = test system: transglutaminase-K (Tgase K) in Normal Human keratinocytes; assay: keratinocyte differentiation (transglutaminase absorbance / µg DNA); assay type: cell-based; conditions: combination with lactic acid
From the text: Keratinocytes, the major cell type in the epidermis, undergo a program of differentiation leading to formation of corneocytes which form the stratum corneum and provide a protective barrier against water loss and entry of harmful substances and pathogens. A prominent feature of keratinocyte differentiation is the formation of a highly insoluble, cross-linked envelope (CE) immediately beneath the keratinocyte plasma membrane. The production of keratinocyte CE is catalyzed by the enzyme transglutaminase-K (Tgase K) which cross-links certain precursor proteins in the cell. […] Therefore, agents that increase Tgase-K activity have the potential of providing benefits to the skin.
Method: Normal Human keratinocytes were seeded in 96-well plates at 4000 cells/well and grown in Keratinocyte Growth Medium (KGM) obtained from Clonetics Corp. Cells were treated with test compounds at various concentrations for 48 hours with an intermittent change of medium after 24 hrs. 6 replicate wells were used for each test. At the end of the incubation period, two parameters were measured on the cells—I. DNA and II. […]
I. DNA was measured using a method described by Rago et al Anal. Biochem 191:31-34,1990. […] Readings were then taken on Millipore Fluorescence Miicroplate Reader (ex/em 360/450 nm). Amount of DNA per well (α) was calculated using standards.
II. […] Absorbance was measured at 490nm (b). […]

[4] = test system: skin; conditions: LAREX publication Mar. 23, 1998; cited from earlier work
[5] = test system: procollagen I in neonatal human dermal fibroblasts; assay: procollagen I production by fibroblasts (slot blot); assay type: cell-based; conditions: combination with glycolic acid
From the text: Collagen is a predominant skin protein. It is synthesized by fibroblasts in the dermis. The synthesis of collagen decreases with aging or photodamage. Collagen l is first made as a precursor molecule called Pro-collagen l. Increased production of procollagen 1 is a marker of an increased collagen level in response to a test compound application.
Method: Neonatal human dermal fibroblasts were purchased from Clonetics Corp., San Diego, Calif. All materials for cell culture were purchased from Life Technologies, NY. Cells (between passages 5-10) were seeded at a density of approximately 10,000/well in the inner 48 wells of a 96-well plate in DMEM (Dulbecco's Modified Eagle's Medium), high-glucose, supplemented with 2 mM L-glutamine, 10% fetal bovine serum, and antibiotic and antimycotic solutions. Cells were then grown to confluence for 2 days. At confluence, the medium was removed and cells were washed with serum-free DMEM, and each well dosed with 200 μl of a solution of a test compound in serum-free DMEM. Each dosing was replicated in the total of six wells. […]
For the analysis of procollagen I in the solutions, they were diluted in DMEM (approximately 20 μl sample in 200 μl DMEM). […] Percent increase was calculated as a ratio of optical density of cells treated with a test compound over control ×100.

[6] = test system: contralateral nasolabial folds of subjects sensitive to glycolic acid; conditions: in vivo, pH 3.8
From the text: as §1, §2, §3, §4, §5

[7] = test system: photodamaged skin on both forearms; assay: 12-week bilateral comparison use test, clinical assessment of photodamaged skin; assay type: in vivo, human; conditions: summary statement
Method: Procedure: The study was a 12-week bilateral comparison use test of two formulations. […] At Baseline (week 0), week 4, 8 and 12, visual evaluation was conducted. Product assignment was randomized and balanced for left/right usage across the subject pool. Subjects were instructed to use the appropriate product to the left/right arms at home and applied approximately 1 gram twice daily for 12 weeks. A minimum of 15 qualified subjects per paired comparison completed the study. […] 0=none […] 4-6=moderate 7-9=severe The following paired comparisons were made: […] The Wilcoxon signed rank test, Pratt-Lehmann version, was used to statistically assess the magnitude of average change from baseline attributable to treatment with subject acting as a block in this analysis. In addition, to compare the extent of change from baseline between the two treatments within a cell, the nonparametric Wilcoxon signed-rank test, Pratt-Lehmann version, was also used.

Compound | Effect on stinging/burning propensity of Base Formula A containing 8% glycolic acid (in words) [2] | Effect on sting/irritation caused by weak carboxylic acids (in words, summary) [2] | Effect on procollagen I levels (in words) [5] | further results
CC(O)CC(=O)O (stereo not drawn) [beta-hydroxybutyric] |  |  |  | pKa [1]: 4.7
C[C@]12CCC(=O)C=C1CC[C@@H]1[C@@H]2[C@@H](O)C[C@@]2(C)[C@H]1CC[C@]2(O)C(=O)CO [hydrocortisone, Hydrocortisone] | neither hydrocortisone nor arabinogalactan reduced the sting | did not reduce the sting caused by weak carboxylic acids |  | 
Arabinogalactan | neither hydrocortisone nor arabinogalactan reduced the sting; also recorded: slightly enhanced the sting | does not have this effect; also recorded: did not reduce the sting caused by weak carboxylic acids | did not | Effect on keratinocyte differentiation (in words) [3]: did not; Increase of exfoliation performance of a skin care lotion containing alpha hydroxy acid [4]: 80%; Irritation of the skin care lotion containing alpha hydroxy acid (in words) [4]: without increased irritation
Dextran |  | decrease irritation; also recorded: reduced the sting caused by weak acids | significant increase in procollagen l levels | Effect on stinging/burning propensity of Base Formula B containing 8% glycolic acid (in words) [6]: reduced the stinging/burning propensity; Effect on anti-aging efficacy of hydroxy acids (in words) [7]: enhances the anti-aging efficacy of hydroxy acids
Maltodextrin |  | decrease irritation |  | 
